Data as given in PubChem BioAssay AID330 (DTP/NCI, 2004).
Where “and” joins values, the source holds several entries; their conditions need not be identical. Equal values may be shown once. Inconclusive results and toxic doses are left out.

Tested on: P388 leukemia ip, CD2F1 mice, survival T/C
Assay: NCI In Vivo Anticancer Drug Screen. Data for tumor model P388 Leukemia (intraperitoneal) in CD2F1 (CDF1) mice
Details: endpoint: median survival time, higher = longer survival
Method in brief: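 Mice carrying the transplanted tumor received test compound or vehicle. Survival was recorded in each group, and the value is the treated-group measurement divided by that of the vehicle-treated control group.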

[1] = dose: 25.0 mg/kg/injection, schedule: Q01DX009 (ip), vehicle: saline
[2] = dose: 50.0 mg/kg/injection, schedule: Q01DX009 (ip), vehicle: saline
[3] = dose: 100.0 mg/kg/injection, schedule: Q01DX009 (ip), vehicle: saline
[4] = dose: 200.0 mg/kg/injection, schedule: Q01DX009 (ip), vehicle: saline
[5] = dose: 60.0 mg/kg/injection, schedule: Q01DX005 (ip), vehicle: saline with Tween-80
[6] = dose: 120.0 mg/kg/injection, schedule: Q01DX005 (ip), vehicle: saline with Tween-80
[7] = dose: 240.0 mg/kg/injection, schedule: Q01DX005 (ip), vehicle: saline with Tween-80
[8] = dose: 50.0 mg/kg/injection, schedule: Q01DX009 (ip), vehicle: saline with Tween-80
[9] = dose: 100.0 mg/kg/injection, schedule: Q01DX009 (ip), vehicle: saline with Tween-80
[10] = dose: 200.0 mg/kg/injection, schedule: Q01DX009 (ip), vehicle: saline with Tween-80
[11] = dose: 60.0 mg/kg/injection, schedule: Q01DX005 (ip), vehicle: saline
[12] = dose: 120.0 mg/kg/injection, schedule: Q01DX005 (ip), vehicle: saline
[13] = dose: 240.0 mg/kg/injection, schedule: Q01DX005 (ip), vehicle: saline
[14] = dose: 50.0 mg/kg/injection, schedule: Q01DX009 (ip), vehicle: Klucel (hydroxypropylcellulose) (HPC)
[15] = dose: 100.0 mg/kg/injection, schedule: Q01DX009 (ip), vehicle: Klucel (hydroxypropylcellulose) (HPC)
[16] = dose: 200.0 mg/kg/injection, schedule: Q01DX009 (ip), vehicle: Klucel (hydroxypropylcellulose) (HPC)
[17] = dose: 60.0 mg/kg/injection, schedule: Q01DX005 (ip), vehicle: Klucel (hydroxypropylcellulose) (HPC)
[18] = dose: 120.0 mg/kg/injection, schedule: Q01DX005 (ip), vehicle: Klucel (hydroxypropylcellulose) (HPC)

CC(Cc1ccccc1)N(C)C1=C(CCC#N)CC(C(C)(C)C)CC1 (stereo not given)
T/C (dose: 50.0 mg/kg/injection, schedule: Q01DX005 (ip), vehicle: saline): 100 % of control | T/C (dose: 100.0 mg/kg/injection, schedule: Q01DX005 (ip), vehicle: saline): 100 % of control

Nc1nncs1
T/C (dose: 6.25 mg/kg/injection, schedule: Q01DX009 (ip), vehicle: water): 107 % of control and 108 % of control and 94 % of control | T/C (dose: 7.5 mg/kg/injection, schedule: Q01DX009 (ip), vehicle: water): 112 % of control | T/C (dose: 15.0 mg/kg/injection, schedule: Q01DX009 (ip), vehicle: water): 101 % of control | T/C (dose: 20.0 mg/kg/injection, schedule: Q01DX005 (ip), vehicle: saline): 103 % of control and 109 % of control | T/C (dose: 30.0 mg/kg/injection, schedule: Q01DX009 (ip), vehicle: water): 117 % of control | T/C (dose: 40.0 mg/kg/injection, schedule: Q01DX005 (ip), vehicle: saline): 122 % of control | T/C (dose: 80.0 mg/kg/injection, schedule: Q01DX005 (ip), vehicle: saline): 172 % of control and 188 % of control | T/C (dose: 120.0 mg/kg/injection, schedule: Q01DX009 (ip), vehicle: water): 104 % of control | T/C (dose: 160.0 mg/kg/injection, schedule: Q01DX005 (ip), vehicle: saline): 69 % of control

COc1cc(/C=C/c2ccc(N(C)C)cc2)oc(=O)c1
T/C (dose: 100.0 mg/kg/injection, schedule: Q04DX002 (ip), vehicle: Klucel (hydroxypropylcellulose) (HPC)): 101 % of control | T/C (dose: 200.0 mg/kg/injection, schedule: Q04DX002 (ip), vehicle: Klucel (hydroxypropylcellulose) (HPC)): 98 % of control | T/C (dose: 400.0 mg/kg/injection, schedule: Q04DX002 (ip), vehicle: Klucel (hydroxypropylcellulose) (HPC)): 99 % of control

C=C1C(=O)OC2C1C(OC(=O)/C(C)=C/C)CC1(C)C(O)CCC(=C)C21 (stereo not given)
T/C (dose: 12.5 mg/kg/injection, schedule: Q01DX005 (ip), vehicle: Klucel (hydroxypropylcellulose) (HPC)): 106 % of control | T/C (dose: 25.0 mg/kg/injection, schedule: Q01DX005 (ip), vehicle: Klucel (hydroxypropylcellulose) (HPC)): 107 % of control | T/C (dose: 50.0 mg/kg/injection, schedule: Q01DX005 (ip), vehicle: Klucel (hydroxypropylcellulose) (HPC)): 114 % of control | T/C (dose: 100.0 mg/kg/injection, schedule: Q01DX005 (ip), vehicle: Klucel (hydroxypropylcellulose) (HPC)): 107 % of control | T/C (dose: 200.0 mg/kg/injection, schedule: Q01DX005 (ip), vehicle: Klucel (hydroxypropylcellulose) (HPC)): 98 % of control

Cn1c(=O)c2[nH]c(/N=N/N(CCCl)CCCl)nc2n(C)c1=O
T/C [1]: 100 % of control | T/C [2]: 100 % of control | T/C [3]: 104 % of control | T/C [4]: 107 % of control | T/C (dose: 400.0 mg/kg/injection, schedule: Q01DX009 (ip), vehicle: saline): 96 % of control

CCOC(=O)c1[nH]cnc1N
T/C (dose: 15.0 mg/kg/injection, schedule: Q01DX005 (ip), vehicle: saline with Tween-80): 104 % of control | T/C (dose: 30.0 mg/kg/injection, schedule: Q01DX005 (ip), vehicle: saline with Tween-80): 101 % of control | T/C [5]: 104 % of control and 106 % of control | T/C [6]: 100 % of control | T/C [7]: 104 % of control

CC(=O)OC1CC2CCC1(CC(=O)c1ccccc1)C2(C)C (stereo not given)
T/C [8]: 96 % of control | T/C [9]: 92 % of control | T/C [10]: 100 % of control

CC1=Nc2ccc([N+](=O)[O-])cc2N=C(C)C1
T/C [8]: 101 % of control | T/C [9]: 98 % of control | T/C (dose: 100.0 mg/kg/injection, schedule: Q04DX002 (ip), vehicle: saline): 101 % of control | T/C [10]: 90 % of control | T/C (dose: 200.0 mg/kg/injection, schedule: Q04DX002 (ip), vehicle: saline): 101 % of control | T/C (dose: 400.0 mg/kg/injection, schedule: Q04DX002 (ip), vehicle: saline): 105 % of control

CC(C)=NOCCC#N
T/C [11]: 99 % of control | T/C [12]: 99 % of control | T/C [13]: 101 % of control

CNC(=S)ON1CCCCC1
T/C [9]: 111 % of control | T/C [10]: 108 % of control

CC1=CCC(C)C(C)(C)C1CC/C(C)=C/CCC1(C)C(CCCO)/C(=C(\C)C=O)CCC1(C)O (stereo not given)
T/C (dose: 4.5 mg/kg/injection, schedule: Q01DX005 (ip), vehicle: Klucel (hydroxypropylcellulose) (HPC)): 152 % of control

C=CCSc1nc2ccc(NCN3C(=O)c4ccccc4C3=O)cc2s1
T/C [14]: 96 % of control | T/C [15]: 96 % of control | T/C [16]: 98 % of control

CCc1cccc(CC)c1NC(=S)Nc1c(C)n(C)n(-c2ccccc2)c1=O
T/C [14]: 106 % of control | T/C [15]: 103 % of control | T/C [16]: 95 % of control

CCOP1(=O)N(C)CCN1C
T/C (dose: 12.5 mg/kg/injection, schedule: Q01DX009 (ip), vehicle: saline): 117 % of control | T/C [1]: 111 % of control | T/C [2]: 101 % of control

Cc1cc(Nc2ccc(C(=O)N/N=C/c3ccc(N(CCCl)CCCl)cc3)cc2)nc2ccc(Cl)cc12
T/C [2]: 90 % of control | T/C [3]: 91 % of control | T/C [4]: 87 % of control

CCOc1c(N=Nc2ccc(Br)cc2)c(C)nn1C(=S)S
T/C [17]: 105 % of control | T/C [18]: 109 % of control

Nc1nc(-c2ccc3ccccc3c2)cc(-c2cc(-c3ccc4ccccc4c3)nc(N)n2)n1
T/C [17]: 96 % of control | T/C [18]: 93 % of control | T/C (dose: 240.0 mg/kg/injection, schedule: Q01DX005 (ip), vehicle: Klucel (hydroxypropylcellulose) (HPC)): 91 % of control

CC(=O)OCC1OC(CCC#N)C(OC(C)=O)C(OC(C)=O)C1OC(C)=O (stereo not given)
T/C [5]: 102 % of control and 100 % of control | T/C [11]: 102 % of control | T/C [6]: 98 % of control and 108 % of control | T/C [12]: 101 % of control | T/C [7]: 100 % of control and 102 % of control | T/C [13]: 101 % of control

CN(C)C=Nc1cc(Cl)c(Cl)cc1Cl
T/C (dose: 12.5 mg/kg/injection, schedule: Q01DX009 (ip), vehicle: saline with Tween-80): 108 % of control | T/C (dose: 25.0 mg/kg/injection, schedule: Q01DX009 (ip), vehicle: saline with Tween-80): 106 % of control | T/C [8]: 106 % of control

COc1cc2c(cc1OC)C1CC3(CCN1CC2)CC(=O)OC3=O (stereo not given)
T/C (dose: 50.0 mg/kg/injection, schedule: Q01DX005 (ip), vehicle: DMSO): 108 % of control | T/C (dose: 100.0 mg/kg/injection, schedule: Q01DX005 (ip), vehicle: DMSO): 120 % of control | T/C (dose: 200.0 mg/kg/injection, schedule: Q01DX005 (ip), vehicle: DMSO): 119 % of control

Nc1c(S(=O)(=O)O)cc(Br)c2c1C(=O)c1ccccc1C2=O
T/C (dose: 50.0 mg/kg/injection, schedule: Q01DX005 (ip), vehicle: saline with Tween-80): 98 % of control | T/C (dose: 100.0 mg/kg/injection, schedule: Q01DX005 (ip), vehicle: saline with Tween-80): 98 % of control | T/C (dose: 200.0 mg/kg/injection, schedule: Q01DX005 (ip), vehicle: saline with Tween-80): 93 % of control

OCCCCCCCCCCCCCC1C=CCC1 (stereo not given)
T/C (dose: 100.0 mg/kg/injection, schedule: Q01DX001 (ip), vehicle: saline): 104 % of control | T/C (dose: 200.0 mg/kg/injection, schedule: Q01DX001 (ip), vehicle: saline): 100 % of control | T/C (dose: 400.0 mg/kg/injection, schedule: Q01DX001 (ip), vehicle: saline): 100 % of control

COc1ccc2c3c1OC1C(OC)(OC)C=C[C@@]4(Br)[C@@H](C2)N(C)CC[C@]314 (stereo not given in full)
T/C (dose: 100.0 mg/kg/injection, schedule: Q01DX001 (ip), vehicle: saline with Tween-80): 109 % of control | T/C (dose: 200.0 mg/kg/injection, schedule: Q01DX001 (ip), vehicle: saline with Tween-80): 106 % of control | T/C (dose: 400.0 mg/kg/injection, schedule: Q01DX001 (ip), vehicle: saline with Tween-80): 123 % of control

Cn1c(=O)c2nc(-c3ccccc3)nnc2n(C)c1=O
T/C (dose: 100.0 mg/kg/injection, schedule: Q04DX003 (ip), vehicle: Klucel (hydroxypropylcellulose) (HPC)): 102 % of control | T/C (dose: 200.0 mg/kg/injection, schedule: Q04DX003 (ip), vehicle: Klucel (hydroxypropylcellulose) (HPC)): 103 % of control | T/C (dose: 400.0 mg/kg/injection, schedule: Q04DX003 (ip), vehicle: Klucel (hydroxypropylcellulose) (HPC)): 115 % of control
